Source: publication PMC6795431, “Identification and characterisation of capidermicin, a novel bacteriocin produced by Staphylococcus capitis” (PLoS ONE, 2019)
“Also recorded” adds a separate entry of the source. Where no end group is shown, it is not given here. The star is where a group is joined. For = O=C*

Columns and labels:
[1] = Temperature stability, bioactivity by agar well diffusion; type: physicochemical; conditions: purified peptide, 10, 30, 40, 50, 80, 90 or 121°C for 15 minutes; agar well diffusion with L. lactis HP
Protocol: (§1) The susceptibility of purified capidermicin peptide to temperature, pH and protease enzymes was investigated through well diffusion assays. To determine temperature stability the purified peptide was subjected to 10, 30, 40, 50, 80, 90, 121°C for 15 minutes. Bioactivity was then determined by carrying out an agar well diffusion assay with L. lactis HP as the bacterial indicator. To evaluate the susceptibility of the peptide to varying pH values, the purified peptide solution was adjusted to pH 2–11 using 1M HCl or 1M NaOH, respectively. After a brief vortex, the peptide was incubated at room temperature for 15 minutes, and the bioactivity was again determined with the well diffusion assay with L. lactis HP. The susceptibility of the peptide to proteolytic cleavage was analysed using trypsin, α-chymotrypsin, pepsin and proteinase K (Sigma-Aldrich). Protease enzymes were dissolved in 100 mM Tris-HCl– 10 mM CaCl2, to a final concentration of 100 μg/ml. Preparations of capidermicin were incubated with the various enzymes at 37°C for 4 hours and the bioactivity of capidermicin was reassessed using the well diffusion assay described above.

[2] = pH stability, bioactivity by agar well diffusion; type: physicochemical; conditions: 15 minutes at room temperature, agar well diffusion with L. lactis HP
Protocol: as §1

[3] = tested on: trypsin; conditions: cited from earlier work
Protocol: (§2) Similar findings have been reported for epidermicin NI01 [42] and lacticin Q [41]. While capidermicin is insensitive to α-chymotrypsin and pepsin, a 70% reduction in activity was observed when it was treated with proteinase K or trypsin. […] Resistance to proteases has been reported for other staphyloco ...

[4] = target: T1, proteinase K (Parengyodontium album, UniProt P06873); conditions: previously observed; cited from earlier work
T1 construct: purchased Sigma-Aldrich
T1 sequence (P06873 106-384): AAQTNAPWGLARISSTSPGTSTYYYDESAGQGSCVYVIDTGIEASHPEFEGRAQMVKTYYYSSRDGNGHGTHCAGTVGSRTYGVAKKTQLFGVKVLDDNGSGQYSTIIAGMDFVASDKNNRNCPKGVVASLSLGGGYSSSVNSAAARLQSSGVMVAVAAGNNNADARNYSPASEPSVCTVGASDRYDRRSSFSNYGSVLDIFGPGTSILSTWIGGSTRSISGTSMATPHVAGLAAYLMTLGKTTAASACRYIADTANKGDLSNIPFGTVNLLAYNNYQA
Protocol: as §2

Substance | Antimicrobial activity following heat treatment [1] | Bioactivity following exposure to pH 2–8 ([2]; pH adjusted with 1M HCl or 1M NaOH) | Decrease in zone of inhibition at pH 9–11 ([2]; pH adjusted with 1M NaOH) [%] | Reduction in activity for trypsin [3] [%] | Reduction in activity for proteinase K [4] [%]
For-MSKVISALSKYGPKAVNWAKNHKGQIANWLLHGLSIPDIVQNVKNAVGIK [capidermicin] | retained; also recorded: unaffected | full bioactivity | 70 |  | 
epidermicin NI01 |  |  |  | 50 | 75
